# PubChem BioAssay AID2060486 (Molecular Pharmacology Branch, DTP, NCI, 2025)
# Tested on: IGROV1 complex spheroids (HUVEC, MSC), viability % test/control
# Experiment: Anticancer human tumor IGROV1 cell line growth inhibition [GQUAD];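 note: spheroids exposed to compounds for 7 days before readout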
# Settings: for IC50: curve of first compound; for viability, T/C: stronger effect = lower value
# Description: DNA G-quadruplex Stabilizer Agents in Combinations in Complex Spheroids
# A high-throughput screen of multi-cell type tumor spheroids was designed to identify active combinations of DNA G-quadruplex stabilizer agents and targeted small molecules. Complex spheroids include a stromal component modeled by human endothelial cells (HUVEC) and fibroblasts modeled by human mesenchymal stem cells (MSCs). The concentration ranges selected for each drug and investigational agent were based upon clinically achievable concentrations if the clinical Cmax of the agent was known.
# Compounds. The drugs and investigational agents: pidnarulex (CX-5461; NSC782164), APTO-253 (NSC789042), BRACO-19 (NSC847499), peposertib (NSC802822), ceralasertib (NSC780249), elimusertib (NSC800525), camonsertib (NSC841442), AZD-1390 (NSC803789), olaparib (NSC753686), talazoparib (NSC767125), ART-558 (NSC835418), sotorasib (NSC818433), MRTX-1133 (NSC836407), SN-38 (NSC673596), topotecan (NSC609699), etoposide (NSC141540), doxorubicin (NSC123127), gemcitabine (NSC613327), 5-fluorouracil (NSC19893), paclitaxel (NSC125973), vemurafenib (NSC761431), panobinostat (NSC761190), R-306465 (JNJ-16241199; NSC773264), adavosertib (NSC754352), TP-3654 (NSC805149), carboplatin (NSC241240), KSQ-4279 (NSC840948), and staurosporine (NSC755774) were obtained from the National Cancer Institute (NCI) Developmental Therapeutics Program Chemical Repository (34). The FDA-approved anticancer drug set is available from the NCI Developmental Therapeutics Program. […] The stock solutions were prepared in dimethyl sulfoxide (DMSO, Sigma-Aldrich, St. Louis, MO, cat. D2650) at 800-fold the tested concentration and stored at -70 degrees C prior to their use. All drugs and investigational agents were tested over a range starting from a high concentration at or near the clinical Cmax and decreasing in half-log increments. If the clinical Cmax for an agent had not been determined, the highest concentration tested was 10 microM.
# 2.3 Cell Culture. All cells were maintained in an incubator at 37 degrees C and 5% CO2 with 95% humidity. The PDC lines were cultured according to standard operating procedures established by the NCI PDMR. All PDCs were thawed and cultured in Matrigel-coated flasks prepared with a working solution of 1X Ham's F-12 nutrient mix, without supplementation (Invitrogen, cat. 11765054), 100 U/mL penicillin-streptomycin (Invitrogen, cat. 15140122), and 2.5% Matrigel (Corning Inc., cat. 354248) for the first three passages. The 857933-349-R-J2-PDC line was cultured in 6C/Colon 1B media, which includes advanced DMEM/F-12 (Thermo Fisher Scientific, cat. 12634028), 10 mM HEPES (Thermo Fisher Scientific, cat. 15630080), 1X GlutaMAX supplement (Thermo Fisher Scientific, cat. 35050061), 0.1 mg/mL primocin (InvivoGen, cat. ant-pm-2), 10% defined fetal bovine serum, heat inactivated (HyClone Laboratories Inc., cat. SH30070.03HI), 50% L-WRN conditioned media (ATCC, cat. CRL-3276), 1.25 mM N-Acetyl-L-cysteine (Sigma-Aldrich, cat. A9165), 10 mM nicotinamide (Sigma-Aldrich, cat. N0636), 1X B-27 supplement (Thermo Fisher Scientific, cat. 17504044), 1X N-2 supplement (Thermo Fisher Scientific, cat. 17502048), 10 microM Y-27632 dihydrochloride (Tocris Bioscience, cat. 1254), and 50 ng/mL human EGF recombinant protein (Thermo Fisher Scientific, cat. PHG0311). The 485176-168-R4-J1-PDC line was cultured in Panc media, which includes all 6C/Colon 1B media components plus 100 ng/mL human FGF-10 (Thermo Fisher Scientific, cat. 100-26), 500 nM SB-431542 (Selleckchem, cat. S1067), and gastrin (Tocris, cat. 3006).
# […]
# [1] = second compound 0.0316 µM, first compound 0.0316 µM
# [2] = second compound 0.0316 µM, first compound 0.316 µM
# [3] = second compound 0.1 µM, first compound 0.0316 µM
# [4] = second compound 0.1 µM, first compound 0.316 µM
# [5] = second compound 0.316 µM, first compound 0.0316 µM
# [6] = second compound 0.316 µM, first compound 0.316 µM
# [7] = second compound 1 µM, first compound 0.0316 µM
# [8] = second compound 1 µM, first compound 0.316 µM
# [9] = second compound 3.16 µM, first compound 0.0316 µM
# [10] = second compound 3.16 µM, first compound 0.316 µM
# [11] = second compound 10 µM, first compound 0.0316 µM
# [12] = second compound 10 µM, first compound 0.316 µM
smiles,measurement,setting,value
Cc1[nH]c2ccccc2c1CCNCc1ccc(/C=C/C(=O)NO)cc1 + Cc1cnc(CNC(=O)c2c(=O)c3ccc(N4CCCN(C)CC4)nc3n3c2sc2ccccc23)cn1,IC50,second compound 0.0316 µM,6.26 nM
same,IC50,second compound 0.1 µM,< 0.999 nM
same,IC50,second compound 0.316 µM,< 0.999 nM
same,IC50,second compound 1 µM,< 0.999 nM
same,IC50,second compound 3.16 µM,< 0.999 nM
same,IC50,second compound 10 µM,< 0.999 nM
same,"viability, T/C","second compound 0.0316 µM, first compound 0.000999 µM",65.9%
same,"viability, T/C","second compound 0.0316 µM, first compound 0.00316 µM",65.3%
same,"viability, T/C","second compound 0.0316 µM, first compound 0.00999 µM",38.7%
same,"viability, T/C",[1],21.5%
same,"viability, T/C","second compound 0.0316 µM, first compound 0.0999 µM",2.35%
same,"viability, T/C",[2],0.32%
same,"viability, T/C","second compound 0.1 µM, first compound 0.000999 µM",41.6%
same,"viability, T/C","second compound 0.1 µM, first compound 0.00316 µM",36.1%
same,"viability, T/C","second compound 0.1 µM, first compound 0.00999 µM",23.9%
same,"viability, T/C",[3],19.6%
same,"viability, T/C","second compound 0.1 µM, first compound 0.0999 µM",2.91%
same,"viability, T/C",[4],0.3%
same,"viability, T/C","second compound 0.316 µM, first compound 0.000999 µM",22.5%
same,"viability, T/C","second compound 0.316 µM, first compound 0.00316 µM",25.8%
same,"viability, T/C","second compound 0.316 µM, first compound 0.00999 µM",15.5%
same,"viability, T/C",[5],15%
same,"viability, T/C","second compound 0.316 µM, first compound 0.0999 µM",3.3%
same,"viability, T/C",[6],0.05%
same,"viability, T/C","second compound 1 µM, first compound 0.000999 µM",15.4%
same,"viability, T/C","second compound 1 µM, first compound 0.00316 µM",16.3%
same,"viability, T/C","second compound 1 µM, first compound 0.00999 µM",9.69%
same,"viability, T/C",[7],6.52%
same,"viability, T/C","second compound 1 µM, first compound 0.0999 µM",1.86%
same,"viability, T/C",[8],0.04%
same,"viability, T/C","second compound 3.16 µM, first compound 0.000999 µM",8.66%
same,"viability, T/C","second compound 3.16 µM, first compound 0.00316 µM",10.2%
same,"viability, T/C","second compound 3.16 µM, first compound 0.00999 µM",9.38%
same,"viability, T/C",[9],6%
same,"viability, T/C","second compound 3.16 µM, first compound 0.0999 µM",0.07%
same,"viability, T/C",[10],0.07%
same,"viability, T/C","second compound 10 µM, first compound 0.000999 µM",6.85%
same,"viability, T/C","second compound 10 µM, first compound 0.00316 µM",7.04%
same,"viability, T/C","second compound 10 µM, first compound 0.00999 µM",5.72%
same,"viability, T/C",[11],4.82%
same,"viability, T/C","second compound 10 µM, first compound 0.0999 µM",0.14%
same,"viability, T/C",[12],0.13%
O=C(NO)c1cnc(N2CCN(S(=O)(=O)c3ccc4ccccc4c3)CC2)nc1 + Cc1cnc(CNC(=O)c2c(=O)c3ccc(N4CCCN(C)CC4)nc3n3c2sc2ccccc23)cn1,IC50,second compound 0.0316 µM,< 31.6 nM
same,IC50,second compound 0.1 µM,< 31.6 nM
same,IC50,second compound 0.316 µM,< 31.6 nM
same,IC50,second compound 1 µM,< 31.6 nM
same,IC50,second compound 3.16 µM,< 31.6 nM
same,IC50,second compound 10 µM,< 31.6 nM
same,"viability, T/C",[1],49.6%
same,"viability, T/C","second compound 0.0316 µM, first compound 0.1 µM",21.8%
same,"viability, T/C",[2],4.13%
same,"viability, T/C","second compound 0.0316 µM, first compound 1 µM",0.2%
same,"viability, T/C","second compound 0.0316 µM, first compound 3.16 µM",0.06%
same,"viability, T/C","second compound 0.0316 µM, first compound 10 µM",0.06%
same,"viability, T/C",[3],16.4%
same,"viability, T/C","second compound 0.1 µM, first compound 0.1 µM",10.6%
same,"viability, T/C",[4],2.94%
same,"viability, T/C","second compound 0.1 µM, first compound 1 µM",0.19%
same,"viability, T/C","second compound 0.1 µM, first compound 3.16 µM",0.06%
same,"viability, T/C","second compound 0.1 µM, first compound 10 µM",0.05%
same,"viability, T/C",[5],11%
same,"viability, T/C","second compound 0.316 µM, first compound 0.1 µM",9.94%
same,"viability, T/C",[6],2.34%
same,"viability, T/C","second compound 0.316 µM, first compound 1 µM",0.05%
same,"viability, T/C","second compound 0.316 µM, first compound 3.16 µM",0.03%
same,"viability, T/C","second compound 0.316 µM, first compound 10 µM",0.05%
same,"viability, T/C",[7],8.18%
same,"viability, T/C","second compound 1 µM, first compound 0.1 µM",8.18%
same,"viability, T/C",[8],1.32%
same,"viability, T/C","second compound 1 µM, first compound 1 µM",0.04%
same,"viability, T/C","second compound 1 µM, first compound 3.16 µM",0.03%
same,"viability, T/C","second compound 1 µM, first compound 10 µM",0.05%
same,"viability, T/C",[9],5.96%
same,"viability, T/C","second compound 3.16 µM, first compound 0.1 µM",4.03%
same,"viability, T/C",[10],0.06%
same,"viability, T/C","second compound 3.16 µM, first compound 1 µM",0.04%
same,"viability, T/C","second compound 3.16 µM, first compound 3.16 µM",0.05%
same,"viability, T/C","second compound 3.16 µM, first compound 10 µM",0.06%
same,"viability, T/C",[11],6.31%
same,"viability, T/C","second compound 10 µM, first compound 0.1 µM",6.49%
same,"viability, T/C",[12],0.09%
same,"viability, T/C","second compound 10 µM, first compound 1 µM",0.07%
same,"viability, T/C","second compound 10 µM, first compound 3.16 µM",0.1%
same,"viability, T/C","second compound 10 µM, first compound 10 µM",0.1%
